Assay results taken from ChEMBL document CHEMBL3414511, “Synthesis of a novel class of substituted benzothiophene or benzofuran derivatives as BMP-2 up-regulators and evaluation of the BMP-2-up-regulating effects in vitro and the effects on glucocorticoid-induced osteoporosis in rats” (Eur J Med Chem, 2015).
Calls of active or inactive are those of the source. No cut-off for these calls is given here.

Columns and labels:
[1] = Upregulation of BMP-2 expression in mouse MC3T3-E1 cells at 4 uM after 24 hrs by luciferase reporter gene assay relative to control; assay type: functional, cell-based
Rattus norvegicus [2] = experiment: Toxicity in glucocorticoid-induced Wistar rat osteoporosis model assessed as neutrophilic granulocytes level at 30 mg/kg/day, po administered six times a week for 3 months (reference value: 31.95 +/- 8.33%); assay type: organism-based; parameters: route oral; conditions: in vivo
Rattus norvegicus [3] = experiment: Toxicity in glucocorticoid-induced Wistar rat osteoporosis model assessed as effect on red blood cells at 30 mg/kg/day, po administered six times a week for 3 months; assay type: organism-based; parameters: route oral; conditions: in vivo
Mus musculus [4] = experiment: Acute toxicity in Kunming mouse assessed as shiny fur at 500 mg/kg, po administered for 3 days measured during compound dosing and following 14 days; assay type: organism-based; parameters: dose 500 mg/kg, route oral; conditions: in vivo, 336 h
Rattus norvegicus [5] = experiment: Toxicity in glucocorticoid-induced Wistar rat osteoporosis model assessed as aspartate transaminase level at 30 mg/kg/day, po administered six times a week for 3 months (reference value: 177.55 +/- 116.98 U/L); assay type: organism-based; parameters: route oral; conditions: in vivo
Rattus norvegicus [6] = experiment: Antiosteoporotic activity in glucocorticoid-induced Wistar rat osteoporosis model assessed as increase in trabecula number at 30 mg/kg/day, po administered six times a week for 3 months by toluidine blue staining-based light microscopic analysis relative to dexamethasone; assay type: functional, organism-based
Rattus norvegicus [7] = experiment: Toxicity in glucocorticoid-induced Wistar rat osteoporosis model assessed as lymph level at 30 mg/kg/day, po administered six times a week for 3 months (reference value: 50.35 +/- 12.96%); assay type: organism-based; parameters: route oral; conditions: in vivo
Rattus norvegicus [8] = experiment: Toxicity in glucocorticoid-induced Wistar rat osteoporosis model assessed as effect on total bilirubin level at 30 mg/kg/day, po administered six times a week for 3 months; assay type: organism-based; parameters: route oral; conditions: in vivo
Rattus norvegicus [9] = experiment: Antiosteoporotic activity in glucocorticoid-induced Wistar rat osteoporosis model assessed as increase in trabecula connectivity at 30 mg/kg/day, po administered six times a week for 3 months by toluidine blue staining-based light microscopic analysis relative to dexamethasone; assay type: functional, organism-based
Rattus norvegicus [10] = experiment: Toxicity in glucocorticoid-induced Wistar rat osteoporosis model assessed as effect on total protein level at 30 mg/kg/day, po administered six times a week for 3 months; assay type: organism-based; parameters: route oral; conditions: in vivo
Rattus norvegicus [11] = experiment: Toxicity in glucocorticoid-induced Wistar rat osteoporosis model assessed as effect on platelets at 30 mg/kg/day, po administered six times a week for 3 months; assay type: organism-based; parameters: route oral; conditions: in vivo
Rattus norvegicus [12] = experiment: Antiosteoporotic activity in glucocorticoid-induced Wistar rat osteoporosis model assessed as trabecula formation surface at 30 mg/kg/day, po administered six times a week for 3 months by fluorescence assay (reference value: 7.82 +/- 2.46%); assay type: functional
Rattus norvegicus [13] = experiment: Toxicity in glucocorticoid-induced Wistar rat osteoporosis model assessed as effect on red blood cell distribution width at 30 mg/kg/day, po administered six times a week for 3 months; assay type: organism-based; parameters: route oral; conditions: in vivo
Rattus norvegicus [14] = experiment: Antiosteoporotic activity in glucocorticoid-induced Wistar rat osteoporosis model assessed as trabecula resorption surface at 30 mg/kg/day, po administered six times a week for 3 months by fluorescence assay (reference value: 7.22 +/- 2.04%); assay type: functional
Rattus norvegicus [15] = experiment: Toxicity in glucocorticoid-induced Wistar rat osteoporosis model assessed as effect on hemoglobin at 30 mg/kg/day, po administered six times a week for 3 months; assay type: organism-based; parameters: route oral; conditions: in vivo
Rattus norvegicus [16] = experiment: Toxicity in glucocorticoid-induced Wistar rat osteoporosis model assessed as triglycerides level at 30 mg/kg/day, po administered six times a week for 3 months (reference value: 1.13 +/- 0.69 mmol/L); assay type: organism-based; parameters: route oral; conditions: in vivo
Rattus norvegicus [17] = experiment: Toxicity in glucocorticoid-induced Wistar rat osteoporosis model assessed as effect on red blood cell specific volume at 30 mg/kg/day, po administered six times a week for 3 months; assay type: organism-based; parameters: route oral; conditions: in vivo
Rattus norvegicus [18] = experiment: Antiosteoporotic activity in glucocorticoid-induced Wistar rat osteoporosis model assessed as increase in trabecula area at 30 mg/kg/day, po administered six times a week for 3 months by toluidine blue staining-based light microscopic analysis relative to dexamethasone; assay type: functional, organism-based
Rattus norvegicus [19] = experiment: Toxicity in glucocorticoid-induced Wistar rat osteoporosis model assessed as effect on glucose level at 30 mg/kg/day, po administered six times a week for 3 months; assay type: organism-based; parameters: route oral; conditions: in vivo
Rattus norvegicus [20] = experiment: Antiosteoporotic activity in glucocorticoid-induced Wistar rat osteoporosis model assessed as trabecular bone volume at 30 mg/kg/day, po administered six times a week for 3 months by fluorescence assay (reference value: 33.09 +/- 5.15%); assay type: functional, Trabecula
Rattus norvegicus [21] = experiment: Toxicity in glucocorticoid-induced Wistar rat osteoporosis model assessed as alanine transaminase level at 30 mg/kg/day, po administered six times a week for 3 months (reference value: 43.73 +/- 36.21 U/L); assay type: organism-based; parameters: route oral; conditions: in vivo
Rattus norvegicus [22] = experiment: Toxicity in glucocorticoid-induced Wistar rat osteoporosis model assessed as white blood cells at 30 mg/kg/day, po administered six times a week for 3 months (reference value: 6.28 +/- 2.78 x 10^9/L); assay type: organism-based; parameters: route oral; conditions: in vivo
Rattus norvegicus [23] = experiment: Toxicity in glucocorticoid-induced Wistar rat osteoporosis model assessed as effect on mean corpuscular hemoglobin concentration at 30 mg/kg/day, po administered six times a week for 3 months; assay type: organism-based; parameters: route oral; conditions: in vivo
Rattus norvegicus [24] = experiment: Antiosteoporotic activity in glucocorticoid-induced Wistar rat osteoporosis model assessed as increase in trabecula thickness at 30 mg/kg/day, po administered six times a week for 3 months by toluidine blue staining-based light microscopic analysis relative to dexamethasone; assay type: functional, organism-based
Rattus norvegicus [25] = experiment: Toxicity in glucocorticoid-induced Wistar rat osteoporosis model assessed as effect on blood urea nitrogen level at 30 mg/kg/day, po administered six times a week for 3 months; assay type: organism-based; parameters: route oral; conditions: in vivo
Mus musculus [26] = experiment: Acute toxicity in Kunming mouse assessed as behavioral changes at 500 mg/kg, po administered for 3 days measured during compound dosing and following 14 days; assay type: organism-based; parameters: dose 500 mg/kg, route oral; conditions: in vivo, 336 h
Rattus norvegicus [27] = experiment: Toxicity in glucocorticoid-induced Wistar rat osteoporosis model assessed as effect on mean corpuscular volume at 30 mg/kg/day, po administered six times a week for 3 months; assay type: organism-based; parameters: route oral; conditions: in vivo
Rattus norvegicus [28] = experiment: Toxicity in glucocorticoid-induced Wistar rat osteoporosis model assessed as effect on creatinine level at 30 mg/kg/day, po administered six times a week for 3 months; assay type: organism-based; parameters: route oral; conditions: in vivo
Rattus norvegicus [29] = experiment: Toxicity in glucocorticoid-induced Wistar rat osteoporosis model assessed as effect on albumin level at 30 mg/kg/day, po administered six times a week for 3 months; assay type: organism-based; parameters: route oral; conditions: in vivo
[30] = Acute toxicity in po dosed Kunming mouse administered for 3 days measured during compound dosing and following 14 days; assay type: organism-based; conditions: in vivo
Rattus norvegicus [31] = experiment: Antiosteoporotic activity in glucocorticoid-induced Wistar rat osteoporosis model assessed as mineral apposition rate at 30 mg/kg/day, po administered six times a week for 3 months by fluorescence assay (reference value: 1.06 +/- 0.27 micrometer/day); assay type: functional
Rattus norvegicus [32] = experiment: Antiosteoporotic activity in glucocorticoid-induced Wistar rat osteoporosis model assessed as densed trabecula at 30 mg/kg/day, po administered six times a week for 3 months by toluidine blue staining-based light microscopic analysis relative to dexamethasone; assay type: functional, organism-based

Structure (SMILES) | Activity [1] | Activity (Rattus norvegicus [2]) | Activity (Rattus norvegicus [3]) | Activity (Rattus norvegicus [5]) | Activity (Rattus norvegicus [7]) | Activity (Rattus norvegicus [8]) | Activity (Rattus norvegicus [10]) | Activity (Rattus norvegicus [11]) | Activity (Rattus norvegicus [12]) | Activity (Rattus norvegicus [13]) | Activity (Rattus norvegicus [14]) | Activity (Rattus norvegicus [15]) | Activity (Rattus norvegicus [16]) | Activity (Rattus norvegicus [17]) | Activity (Rattus norvegicus [19]) | Activity (Rattus norvegicus [20]) | Activity (Rattus norvegicus [21]) | Activity (Rattus norvegicus [22]) | Activity (Rattus norvegicus [23]) | Activity (Rattus norvegicus [25]) | further results
CCN(CC)c1ccc2cc(C(=O)C[S+](C)[O-])oc2c1 (stereo not given) | 10% | – | – | – | – | – | – | – | – | – | – | – | – | – | – | – | – | – | – | – | –
C[S+]([O-])CC(O)c1cc2cc3c(cc2s1)OCO3 (stereo not given) | -9.3% | – | – | – | – | – | – | – | – | – | – | – | – | – | – | – | – | – | – | – | –
CCOC(=O)c1ccc2cc(C(=O)/C=C/c3ccccc3)sc2c1 | 85.9% | 41.98% | Non-toxic | 103.08 U/L | 43.43% | Non-toxic | Non-toxic | Non-toxic | 6.98% | Non-toxic | 8.58% | Non-toxic | 0.29 mmol/L | Non-toxic | Non-toxic | 25.2% | 27 U/L | 2.83 ×10⁹ /L | Non-toxic | Non-toxic | Activity (Mus musculus [4]): Non-toxic; Activity (Rattus norvegicus [6]): Active; Activity (Rattus norvegicus [9]): Active; Activity (Rattus norvegicus [18]): Active; Activity (Rattus norvegicus [24]): Active; Activity (Mus musculus [26]): Non-toxic; Activity (Rattus norvegicus [27]): Non-toxic; Activity (Rattus norvegicus [28]): Non-toxic; Activity (Rattus norvegicus [29]): Non-toxic; LD50 at 336 h [30]: > 500 mg/kg; Activity (Rattus norvegicus [31]): 1.26 micrometer/day
C[S+]([O-])CC(O)c1cc2ccccc2s1 (stereo not given) | -3.6% | – | – | – | – | – | – | – | – | – | – | – | – | – | – | – | – | – | – | – | –
CC(=O)c1cc2cc(C(=O)O)ccc2s1 | 93.2% | 47.71% | Non-toxic | 103.17 U/L | 36.73% | Non-toxic | Non-toxic | Non-toxic | 5.03% | Non-toxic | 10.3% | Non-toxic | 0.62 mmol/L | Non-toxic | Non-toxic | 23.13% | 26.67 U/L | 3.31 ×10⁹ /L | Non-toxic | Non-toxic | Activity (Mus musculus [4]): Non-toxic; Activity (Rattus norvegicus [32]): Active; Activity (Mus musculus [26]): Non-toxic; Activity (Rattus norvegicus [27]): Non-toxic; Activity (Rattus norvegicus [28]): Non-toxic; Activity (Rattus norvegicus [29]): Non-toxic; LD50 at 336 h [30]: > 500 mg/kg; Activity (Rattus norvegicus [31]): 1.03 micrometer/day
CCOC(=O)c1cc2ccc(OC)cc2o1 | 89.4% | 38.96% | Non-toxic | 110.08 U/L | 46.18% | Non-toxic | Non-toxic | Non-toxic | 7.13% | Non-toxic | 8.23% | Non-toxic | 0.38 mmol/L | Non-toxic | Non-toxic | 30.8% | 27.67 U/L | 2.83 ×10⁹ /L | Non-toxic | Non-toxic | Activity (Mus musculus [4]): Non-toxic; Activity (Rattus norvegicus [6]): Active; Activity (Rattus norvegicus [9]): Active; Activity (Rattus norvegicus [18]): Active; Activity (Rattus norvegicus [24]): Active; Activity (Mus musculus [26]): Non-toxic; Activity (Rattus norvegicus [27]): Non-toxic; Activity (Rattus norvegicus [28]): Non-toxic; Activity (Rattus norvegicus [29]): Non-toxic; LD50 at 336 h [30]: > 500 mg/kg; Activity (Rattus norvegicus [31]): 1.29 micrometer/day
CCOC(=O)c1ccc2cc(C(=O)/C=C/c3ccc(OC)c(OC)c3OC)sc2c1 | -13% | – | – | – | – | – | – | – | – | – | – | – | – | – | – | – | – | – | – | – | –
CCOC(=O)c1cc2cc(OC)ccc2o1 | 64.1% | – | – | – | – | – | – | – | – | – | – | – | – | – | – | – | – | – | – | – | –
CCOC(=O)c1cc2cc3c(cc2s1)OCO3 | – | 41.49% | Non-toxic | 114.82 U/L | 46.29% | Non-toxic | Non-toxic | Non-toxic | 5.72% | Non-toxic | 9.43% | Non-toxic | 0.34 mmol/L | Non-toxic | Non-toxic | 22.07% | 28.27 U/L | 3.27 ×10⁹ /L | Non-toxic | Non-toxic | Activity (Mus musculus [4]): Non-toxic; Activity (Rattus norvegicus [32]): Active; Activity (Mus musculus [26]): Non-toxic; Activity (Rattus norvegicus [27]): Non-toxic; Activity (Rattus norvegicus [28]): Non-toxic; Activity (Rattus norvegicus [29]): Non-toxic; LD50 at 336 h [30]: > 500 mg/kg; Activity (Rattus norvegicus [31]): 0.95 micrometer/day
COc1ccc2oc(C(O)C[S+](C)[O-])cc2c1 (stereo not given) | 16.9% | – | – | – | – | – | – | – | – | – | – | – | – | – | – | – | – | – | – | – | –
CC(=O)c1cc2ccccc2s1 | – | 43.25% | Non-toxic | 129.83 U/L | 39.85% | Non-toxic | Non-toxic | Non-toxic | 7.36% | Non-toxic | 8.36% | Non-toxic | 0.46 mmol/L | Non-toxic | Non-toxic | 31.57% | 35.25 U/L | 3.12 ×10⁹ /L | Non-toxic | Non-toxic | Activity (Rattus norvegicus [6]): Active; Activity (Rattus norvegicus [9]): Active; Activity (Rattus norvegicus [18]): Active; Activity (Rattus norvegicus [24]): Active; Activity (Rattus norvegicus [27]): Non-toxic; Activity (Rattus norvegicus [28]): Non-toxic; Activity (Rattus norvegicus [29]): Non-toxic; Activity (Rattus norvegicus [31]): 1.24 micrometer/day
